Assay results as given in patent US12557812B2, “Method and composition for water treatment” (BROMINE COMPOUNDS LTD., priority 2019, dated 2026).
“Also recorded” adds a separate entry of the source. Read-outs that look alike come from different tables or passages of the source.

What was measured:
[1] = system: biofilm formed by mixed bacteria (Staphylococcus aureus 6538, Bacillus mycoides 6462 and Pseudomonas aeruginosa 700888); assay: Sequential application of CDA then biocide on mixed-bacteria biofilm grown in CDC biofilm reactor; assay type: cell-based
[2] = system: mix of planktonic bacteria (E. Coli ATCC 11229, S. aureus ATCC 6538, Enterobacter aerogenes ATCC 130489, P. aeruginosa ATCC 13388); assay: Quantitative suspension test (modified EN 1040) on planktonic bacteria, sequential CDA then biocide; assay type: cell-based; conditions: 2.5 ppm BCDMH 3 h, 310 nM CDA 1 h before; TOC=30 ppm, 30° C.
Experimental: 310 nM CDA and bromine-containing biocide were introduced into a mix of planktonic bacteria in a medium containing different levels of organic loading (TOC 10-3000 ppm). High organic loading tends to reduce the efficacy of antimicrobial agents in industrial applications and, therefore, the test was aimed to mimic these conditions. The test was performed in accordance with the modified European standard EN 1040: 2005: “Chemical disinfectants and antiseptics—Quantitative suspension test for the evaluation of basic bactericidal activity of chemical disinfectants and antiseptics—Tests method and requirements (phase 1)”. 19 ml of phosphate buffer solution (pH=7) including tryptone in order to obtain a solution of TOC=30 ppm, and 1 ml of the tested bacteria suspension (consisted of E. Coli (ATCC 11229), S. aureus (ATCC 6538), Enterobacter aerogenes (ATCC 130489) and P. aeruginosa (ATCC 13388)), at a concentration of 1.5×10^8-5×10^8 CFU/ml, were placed into a container of suitable capacity. A stopwatch was started immediately and the container was placed in a water bath controlled at 30° C.
The activity was determined with 2.5 ppm BCDMH alone for a contact time of 3 hours. […] Countable plates were counted and the number of colony-forming units was determined, for each plate.

[3] = system: P. aeruginosa strain PA14 biofilm; assay: Simultaneous application of CDA and biocide on 3-day biofilm in 24-well plates; assay type: cell-based, Pseudomonas aeruginosa; conditions: for Log reduction vs. control: biocide alone / Enhancement / Log reduction vs. control: combination of the 310 nm CDA and biocide: biocide 10 ppm; for Enhancement: simultaneous 310 nm CDA; for Log reduction vs. control: combination of the 310 nm CDA and biocide: simultaneous application
Experimental: The effect of bromine-containing biocide in combination with CDA on pre-grown biofilms was studied. The experiment was carried out utilizing (A) the P. aeruginosa strain PA14 and (B) mixed bacterial species derived from environmental and industrial water.
Bacteria were cultured in EPRI medium supplemented with Hutners mineral solution and glucose (0.2%). Microorganisms were incubated at room temperature (22° C.), under aerobic conditions with shaking. The biofilm culture system used included polystyrene 24-well plates that were treated with protein to enhance attachment and growth of biofilm bacteria according to the method described in Davies D G, Marques C N, 2009, J Bacteriol 191:1393-1403.
Following inoculation with 1 mL bacterial culture, spent medium was removed and replaced with sterile medium every 24 hours for 3 days, and a final medium exchange was performed 3 hours prior to treatment. Additionally, the medium was exchanged prior to treatment in order to remove planktonic bacteria. Treatments consisted of 100 μL of 310 nM CDA and bromine-containing biocide, or bromine-containing biocide alone at concentrations used in commercial water treatment, water was used as a carrier, for a contact time determined by activity of each biocide and ranging from 1 hour to 24 hours, as detailed below for each of the tested biocides.
Following the treatment, the medium from each well was removed by pipet and 1 mL of DE neutralization broth was added in order to stop the treatment. Bacteria from each well were then removed by scraping the biofilm formed in the well with a sterile cell-scraper, and 1.0 mL of culture was transferred to chilled (4° C.) 9.0 mL DE neutralizing broth and homogenized for 15 seconds at 40,000 rpm on ice. Further dilutions were performed prior to enumeration (further neutralizing biocide activity). Recovery of bacteria were tested at different dilutions of biocide in water, in LB medium with thioglycolate and in DE neutralizing broth to ensure the active agent was properly neutralized. Viable bacteria were enumerated via the drop plate method. Each biocide was evaluated using 24-well plates with 8 wells each for the control cultures (Ctl) inoculated with P. aeruginosa but not treated, a CDA minus test (−CDA) treated with bromine-containing biocide only, and a CDA plus test treated with bromine-containing biocide and CDA (+CDA).

[4] = system: Pseudomonas aeruginosa biofilm; assay: Sequential application of CDA then biocide on 3-day-old biofilm grown in CDC biofilm reactor (single tube method); assay type: cell-based; conditions: for effect on biofilm of biocides applied alone, compared with each other: Example 8, 5 ppm, 1 h (FIG. 17)
P. aeruginosa biofilm = assay: Simultaneous application of CDA salt form and biocide on 3-day biofilm, CDC biofilm reactor, pH 8-9; assay type: cell-based, Pseudomonas aeruginosa; conditions: 310 nM CDA, 1 h
[5] = Stepwise acidification of CDA sodium/lithium salt (pKa); assay type: physicochemical
[6] = Storage stability of biocide/CDA liquid concentrates (HPLC); assay type: physicochemical
Experimental: 22 mg of cis-2-decenoic acid (CiVentiChem, 96.72% purity) were charged into 50 ml flask, equipped with a stirrer 3.99 gr of C-103 (ICL, batch 640160147) were added, followed by 9.97 gr of PEG200 (Merck 8.07483.5000 Lot 56904983 451), 5.95 gr of DI water and 22 mg of BHT (Aldrich B1378-100G, BCBH9491V). The obtained solution was stirred till complete clarification; sonication at +30° C. is recommended if some particles are observed. Clear colorless solution of a total […] and 20:50:30:0.1:0.1 weight ratio of C103-PEG200-H2O-CDA-BHT was obtained.
The solution was tested to determine the stability of the biocide and CDA and under storage at 25° C. over a two-month period.
47.6 mg or cis-2-decenoic acid (CiVentiChem, 96.72% purity) were charged into 50 ml flask, equipped with a stirrer. 9.01 gr of Bronopol (ICL, batch 17101607) were added, followed by 18.03 gr of propylene glycol (Biolab 16200201 Lot 1007861), 3.0 gr of DI water and 31.2 mg of BHT (Aldrich B1378-100G, BCBH9491V). After stirring for several minutes, undissolved traces of BHT were filtered through filtering paper for BHT particle removal. Clear colorless solution of a total 30 gr and 30:60:10:0.158:0.1 weight ratio of Bronopol-PG-H2O-CDA-BHT was obtained.

CC1(C)C(=O)N(Cl)C(=O)N1Br [BCDMH, 1-bromo-3-chloro-5,5-dimethylhydantoin]
biofilm reduction by biocide alone ([1]; biocide 5 ppm or 10 ppm, mixed bacteria biofilm): reduces the biofilm
enhancement by combined treatment relative to biocide alone ([1]; biocide 5 ppm, 310 nM commercial CDA, mixed bacteria biofilm (FIG. 12A)): ~2.5 log units
enhancement by combined treatment relative to biocide alone ([1]; biocide 10 ppm, 310 nM commercial CDA, mixed bacteria biofilm (FIG. 12B)): ~5.5 log units
Log reduction vs. control: biocide alone ([1]; biocide 10 ppm, 1 h, biofilm formed by mixed bacteria): ~2 log units
Enhancement ([1]; biocide 10 ppm, 310 nM CDA combination vs biocide alone, mixed bacteria biofilm): ~5.5 log units
Log reduction vs. control: combination of the 310 nM CDA and biocide ([1]; biocide 10 ppm, 1 h CDA 310 nM then 1 h biocide, mixed bacteria biofilm): ~7.5 log units
enhancement by CDA and biocide in sequence compared with biocide without CDA [2]: 2 log units
log reduction of biocide and CDA compared with biocide alone ([3]; 10 ppm BCDMH, 310 nM CDA, one hour (FIG. 4)): 2
Log reduction vs. control: biocide alone ([3]; 2 hours contact time): ~4 log units
Enhancement ([3]; 2 hours contact time): ~2 log units
Log reduction vs. control: combination of the 310 nm CDA and biocide ([3]; 2 hours contact time): ~6 log units
enhancement by combined treatment relative to biocide alone ([4]; 10 ppm BCDMH, 31 nM commercial CDA (FIG. 13)): 4.5 log units
enhancement by combined treatment relative to biocide alone ([4]; 10 ppm BCDMH, 310 nM commercial CDA (FIG. 13)): 4.5 log units
enhancement by combined treatment relative to biocide alone ([4]; 10 ppm BCDMH, 3100 nM commercial CDA (FIG. 13)): 5.5 log units
effect of 5.0 ppm biocide with 310 nM CDA relative to 10 ppm biocide without CDA ([4]; Example 3, sequential, FIG. 14): comparable
reduction by biocide/CDA combination versus the solely applied biocide ([4]; Example 8, 5 ppm biocide/310 nM CDA, sequential (FIG. 17)): 4.5 log units
effect on biofilm of biocides applied alone, compared with each other [4]: comparable effect
Log reduction vs. control: biocide alone ([4]; biocide 10 ppm, 1 h contact time, 3-day-old biofilm): ~3.5 log units
Enhancement ([4]; biocide 10 ppm, 310 nM CDA combination vs biocide alone): ~2.5 log units
Log reduction vs. control: combination of the 310 nM CDA and biocide ([4]; biocide 10 ppm, 1 h CDA 310 nM then 1 h biocide): ~6 log units
enhancement by combined treatment relative to biocide alone ([4]; text of Example 2, biocide 10 ppm, 310 nM commercial CDA (97% by GC)): ~2 log units
enhancement by combined treatment relative to biocide alone ([4]; text of Example 2, biocide 10 ppm, 310 nM crude CDA (90% by GC)): ~2 log units
biofilm reduction by biocide alone ([4]; text of Example 2, biocide 10 ppm, 1 h): ~3 log units

CCCCCCC/C=C\C(=O)O [CDA, cis-2-decenoic acid]
effect of CDA alone on biofilm compared to the control (P. aeruginosa biofilm): no useful effect
effect of CDA alone on biofilm compared to the control ([1]; 310 nM commercial CDA, mixed bacteria biofilm): no useful effect
pKa [5]: 6.5 to 7.5
effect of CDA alone on biofilm compared to the control [4]: no useful effect
effect of CDA alone on biofilm compared to the control ([4]; 310 nM CDA, commercial (97%) or crude (90%), 1 h): no useful effect
biocidal action of CDA alone (reduction of bacterial counts) ([4]; CDA on its own, broad concentration range, even >3000 nM): failed to demonstrate biocidal action
degradation under storage (HPLC) ([6]; Example 6 concentrate C103-PEG200-H2O-CDA-BHT 20:50:30:0.1:0.1, 25° C., two months): Neither DBNPA nor CDA underwent degradation
degradation under storage (HPLC) ([6]; Example 7 concentrate Bronopol-PG-H2O-CDA-BHT 30:60:10:0.158:0.1, 25° C., two months): Neither bronopol nor CDA underwent degradation

O=[N+]([O-])C(Br)(CO)CO [Bronopol, 2-bromo-2-nitro-1,3-propanediol]
reduction of number of bacteria by addition of CDA to the biocide treatment ([3]; 10 ppm bronopol, 310 nM CDA, two hours of treatment (FIG. 2A)): more than an order of magnitude
Log reduction vs. control: biocide alone ([3]; 24 hours contact time): ~6 log units
Log reduction vs. control: biocide alone ([3]; 24 hours contact time, listed as bronopol): very effective in reducing biofilm
Enhancement ([3]; 24 hours contact time): ~3 log units
Log reduction vs. control: combination of the 310 nm CDA and biocide ([3]; 24 hours contact time): effective in eradicating P. aeruginosa biofilm; also recorded: biofilm eradication
degradation under storage (HPLC) [6]: Neither bronopol nor CDA underwent degradation

OCl [sodium hypochlorite, Sodium hypochlorite, reference compound]
reduction by biocide/CDA combination versus the solely applied biocide [4]: 2 log units
effect on biofilm of biocides applied alone, compared with each other [4]: comparable effect
